Measured values taken from patent publication US20170232083A1, “METHODS OF DIAGNOSIS AND TREATMENT OF CELIAC DISEASE IN CHILDREN” (priority 2014, published 2017).

Tested on: PBMC (polyclonal gluten-specific T cells) of paediatric and adult CD patients
Test: IFN-γ ELISpot of PBMC after 3 day oral wheat challenge (SFU, % of maximal peptide response, dominance scores, EC50; Examples 5-6)
Type: cell-based, human
Details: for Cross-reactive T cell response: following wheat challenge; for IFN-γ ELISpot response: after oral wheat challenge
[1] = patient A, 11-17 yrs, cut-off 10 SFU
[2] = patient E, H, 11-17 yrs, cut-off 10 SFU
[3] = patient F, 11-17 yrs, cut-off 10 SFU
[4] = patient G, 11-17 yrs, cut-off 10 SFU
[5] = patient H (HLA-DQ2.5 homozygote), 3-5yrs, cut-off 10 SFU
[6] = patient H, 11-17 yrs, cut-off 10 SFU
[7] = patient ID not given, 11-17 yrs, cut-off 10 SFU
[8] = patient ID not given, max peptide 95 SFU
[9] = patient N, 3-5yrs, cut-off 10 SFU
[10] = patient P, 11-17 yrs, cut-off 21.6 SFU
[11] = patient Q, 11-17 yrs, cut-off 10 SFU
[12] = patient U, H, 11-17 yrs, cut-off 10 SFU
[13] = patient V, 6-10 yrs, cut-off 10 SFU
[14] = patient Y, 6-10 yrs, cut-off 10 SFU
[15] = patient eleven, 6-10 yrs, cut-off 10 SFU
[16] = patient eleven, max peptide 57 SFU
[17] = patient five, max peptide 48 SFU
[18] = patient four, 3-5yrs, cut-off 10 SFU
[19] = patient four, max peptide 44 SFU
[20] = patient seven, 6-10 yrs, cut-off 10.5 SFU
[21] = patient ten, 3-5yrs, cut-off 10 SFU
[22] = patient three, 6-10 yrs, cut-off 10.5 SFU
[23] = patient twelve, 11-17 yrs, cut-off 10 SFU
[24] = patient two, 3-5yrs, cut-off 10 SFU
[25] = patient two, max peptide 60 SFU
[26] = patient ten, max peptide 14.5 SFU

LPFPQPEQPFVVV
Cross-reactive T cell response (subject A, 11-17yrs): 1 SFU | Significant response as a percentage of maximal peptide SFU (subject D, 11-17yrs): ′′′ (41-70% = ′′′) | Cross-reactive T cell response (subject D, 11-17yrs): 20 SFU | Significant response as a percentage of maximal peptide SFU (subject E, 11-17yrs): (6-10% - ^) | Cross-reactive T cell response (subject E, 11-17yrs): 16 SFU | Significant response as a percentage of maximal peptide SFU (subject F, 11-17yrs): (6-10% - ^) | Cross-reactive T cell response (subject F, 11-17yrs): 15 SFU | Cross-reactive T cell response (subject G, 11-17yrs): 3 SFU | Cross-reactive T cell response (subject H): 3 SFU | Cross-reactive T cell response (subject I (3-5yrs/6-10yrs part)): 7 SFU | Significant response as a percentage of maximal peptide SFU (subject J): ′ (11-20% = ′) | Cross-reactive T cell response (subject J (3-5yrs/6-10yrs part)): 29 SFU | Significant response as a percentage of maximal peptide SFU (subject K): ′′ (21-40% = ′′) | Cross-reactive T cell response (subject K (3-5yrs/6-10yrs part)): 18 SFU | Cross-reactive T cell response (subject P, 11-17yrs): 20 SFU | Significant response as a percentage of maximal peptide SFU (subject Q, 11-17yrs): ′′ (21-40% = ′′) | Cross-reactive T cell response (subject Q, 11-17yrs): 31 SFU | Significant response as a percentage of maximal peptide SFU (subject T, 11-17yrs): ′′′ (41-70% = ′′′) | Cross-reactive T cell response (subject T, 11-17yrs): 42 SFU | Cross-reactive T cell response (subject U, 11-17yrs): 8 SFU | Significant response as a percentage of maximal peptide SFU (subject V): ′′ (21-40% = ′′) | Cross-reactive T cell response (subject V (3-5yrs/6-10yrs part)): 13 SFU | Cross-reactive T cell response (subject W (3-5yrs/6-10yrs part)): 9 SFU | Cross-reactive T cell response (subject Y (3-5yrs/6-10yrs part)): 7 SFU | Significant response as a percentage of maximal peptide SFU (subject five): + (>70% = +) | Cross-reactive T cell response (subject five (3-5yrs/6-10yrs part)): 34 SFU | Cross-reactive T cell response (subject nine, 11-17yrs): 1 SFU | Cross-reactive T cell response (subject seven (3-5yrs/6-10yrs part)): 3 SFU | Cross-reactive T cell response (subject six (3-5yrs/6-10yrs part)): 8 SFU | Cross-reactive T cell response (subject ten (3-5yrs/6-10yrs part)): 8 SFU | Significant response as a percentage of maximal peptide SFU (subject two): ′′ (21-40% = ′′) | Cross-reactive T cell response (subject two (3-5yrs/6-10yrs part)): 18 SFU

LPYPQPQLPYPQP
IFN-γ ELISpot response [1]: 3 SFU | IFN-γ ELISpot response [2]: 61 SFU | Significant response as percentage of maximal peptide SFU (patient E, max peptide 224 SFU): ′′ (21-40% = ′′) | IFN-γ ELISpot response [3]: 120 SFU | Significant response as percentage of maximal peptide SFU (patient F, max peptide 178 SFU): ′′′ (41-70% = ′′′) | IFN-γ ELISpot response [4]: 2 SFU | IFN-γ ELISpot response [5]: 13 SFU | IFN-γ ELISpot response [6]: 13 SFU | Significant response as percentage of maximal peptide SFU (patient H, max peptide 17 SFU): + (>70% = +) | IFN-γ ELISpot response [7]: 49 SFU | Significant response as percentage of maximal peptide SFU [8]: ′′′ (41-70% = ′′′) | Significant response as percentage of maximal peptide SFU (patient II, max peptide 15 SFU): + (>70% = +) | Significant response as percentage of maximal peptide SFU (patient J, max peptide 196 SFU): ′′ (21-40% = ′′) | Significant response as percentage of maximal peptide SFU (patient K, max peptide 53 SFU): ′′ (21-40% = ′′) | Significant response as percentage of maximal peptide SFU (patient M, max peptide 48 SFU): ′′ (21-40% = ′′) | IFN-γ ELISpot response [9]: 3 SFU | IFN-γ ELISpot response [10]: 17 SFU | IFN-γ ELISpot response [11]: 53 SFU | Significant response as percentage of maximal peptide SFU (patient Q, max peptide 97 SFU): ′′′ (41-70% = ′′′) | IFN-γ ELISpot response [12]: 25 SFU | Significant response as percentage of maximal peptide SFU (patient U, max peptide 81 SFU): ′′ (21-40% = ′′) | IFN-γ ELISpot response [13]: 18 SFU | Significant response as percentage of maximal peptide SFU (patient V, max peptide 35 SFU): ′′′ (41-70% = ′′′) | IFN-γ ELISpot response [14]: 16 SFU | Significant response as percentage of maximal peptide SFU (patient Y, max peptide 16 SFU): + (>70% = +) | IFN-γ ELISpot response [15]: 25 SFU | Significant response as percentage of maximal peptide SFU [16]: ′′′ (41-70% = ′′′) | Significant response as percentage of maximal peptide SFU [17]: ′′ (21-40% = ′′) | IFN-γ ELISpot response [18]: 22 SFU | Significant response as percentage of maximal peptide SFU [19]: ′′′ (41-70% = ′′′) | IFN-γ ELISpot response [20]: 8 SFU | IFN-γ ELISpot response [21]: 7 SFU | IFN-γ ELISpot response [22]: 75 SFU | IFN-γ ELISpot response [23]: 5 SFU | IFN-γ ELISpot response [24]: 14 SFU | Significant response as percentage of maximal peptide SFU [25]: ′′ (21-40% = ′′)

LQPFPQPELPYPQPQ
IFN-γ ELISpot response [1]: 2.5 SFU | Significant response as percentage of maximal peptide SFU (patient D, max peptide 30.5 SFU): + (>70% = +) | IFN-γ ELISpot response [2]: 152 SFU | Significant response as percentage of maximal peptide SFU (patient E, max peptide 224 SFU): ′′′ (41-70% = ′′′) | IFN-γ ELISpot response [3]: 166.5 SFU | Significant response as percentage of maximal peptide SFU (patient F, max peptide 178 SFU): + (>70% = +) | IFN-γ ELISpot response [4]: 10 SFU | Significant response as percentage of maximal peptide SFU (patient G, max peptide 15 SFU): ′′′ (41-70% = ′′′) | IFN-γ ELISpot response [5]: 31 SFU | IFN-γ ELISpot response [6]: 8 SFU | IFN-γ ELISpot response [7]: 66.5 SFU | Significant response as percentage of maximal peptide SFU [8]: ′′′ (41-70% = ′′′) | Significant response as percentage of maximal peptide SFU (patient J, max peptide 196 SFU): ′′′ (41-70% = ′′′) | Significant response as percentage of maximal peptide SFU (patient K, max peptide 53 SFU): ′′ (21-40% = ′′) | Significant response as percentage of maximal peptide SFU (patient M, max peptide 48 SFU): ′′′ (41-70% = ′′′) | IFN-γ ELISpot response [9]: 5.5 SFU | IFN-γ ELISpot response [10]: 41.5 SFU | Significant response as percentage of maximal peptide SFU (patient P, max peptide 64 SFU): ′′′ (41-70% = ′′′) | IFN-γ ELISpot response [11]: 67.5 SFU | Significant response as percentage of maximal peptide SFU (patient Q, max peptide 97 SFU): ′′′ (41-70% = ′′′) | IFN-γ ELISpot response [12]: 45 SFU | Significant response as percentage of maximal peptide SFU (patient U, max peptide 81 SFU): ′′′ (41-70% = ′′′) | IFN-γ ELISpot response [13]: 30 SFU | Significant response as percentage of maximal peptide SFU (patient V, max peptide 35 SFU): + (>70% = +) | IFN-γ ELISpot response [14]: 10.5 SFU | Significant response as percentage of maximal peptide SFU (patient Y, max peptide 16 SFU): ′′′ (41-70% = ′′′) | Significant response as percentage of maximal peptide SFU (patient Z, max peptide 13 SFU): + (>70% = +) | Significant response as percentage of maximal peptide SFU (patient eight, max peptide 12 SFU): + (>70% = +) | IFN-γ ELISpot response [15]: 57 SFU | Significant response as percentage of maximal peptide SFU [16]: + (>70% = +) | Significant response as percentage of maximal peptide SFU [17]: + (>70% = +) | IFN-γ ELISpot response [18]: 40.5 SFU | Significant response as percentage of maximal peptide SFU (patient one, max peptide 16.5 SFU): + (>70% = +) | IFN-γ ELISpot response [20]: 8 SFU | IFN-γ ELISpot response (patient six, 3-5yrs, cut-off 10 SFU): 13 SFU | Significant response as percentage of maximal peptide SFU (patient six, max peptide 13 SFU): + (>70% = +) | IFN-γ ELISpot response [21]: 14 SFU | Significant response as percentage of maximal peptide SFU [26]: + (>70% = +) | IFN-γ ELISpot response [22]: 99.5 SFU | IFN-γ ELISpot response [23]: 27 SFU | IFN-γ ELISpot response [24]: 29 SFU | Significant response as percentage of maximal peptide SFU [25]: ′′′ (41-70% = ′′′)

LQPFPQPELPYSQP
IFN-γ ELISpot response [1]: 3 SFU | IFN-γ ELISpot response [2]: 104 SFU | Significant response as percentage of maximal peptide SFU (patient E, max peptide 224 SFU): ′′′ (41-70% = ′′′) | IFN-γ ELISpot response [3]: 81 SFU | Significant response as percentage of maximal peptide SFU (patient F, max peptide 178 SFU): ′′′ (41-70% = ′′′) | IFN-γ ELISpot response [4]: 5 SFU | IFN-γ ELISpot response [5]: 36 SFU | IFN-γ ELISpot response [6]: 15 SFU | Significant response as percentage of maximal peptide SFU (patient H, max peptide 17 SFU): + (>70% = +) | IFN-γ ELISpot response [7]: 53 SFU | Significant response as percentage of maximal peptide SFU [8]: ′′′ (41-70% = ′′′) | Significant response as percentage of maximal peptide SFU (patient II, max peptide 15 SFU): + (>70% = +) | Significant response as percentage of maximal peptide SFU (patient J, max peptide 196 SFU): ′′ (21-40% = ′′) | Significant response as percentage of maximal peptide SFU (patient M, max peptide 48 SFU): + (>70% = +) | IFN-γ ELISpot response [9]: 3 SFU | IFN-γ ELISpot response [10]: 37 SFU | Significant response as percentage of maximal peptide SFU (patient P, max peptide 64 SFU): ′′′ (41-70% = ′′′) | IFN-γ ELISpot response [11]: 29 SFU | Significant response as percentage of maximal peptide SFU (patient Q, max peptide 97 SFU): ′′ (21-40% = ′′) | IFN-γ ELISpot response [12]: 25 SFU | Significant response as percentage of maximal peptide SFU (patient U, max peptide 81 SFU): ′′ (21-40% = ′′) | IFN-γ ELISpot response [13]: 19 SFU | Significant response as percentage of maximal peptide SFU (patient V, max peptide 35 SFU): ′′′ (41-70% = ′′′) | IFN-γ ELISpot response [14]: 12 SFU | Significant response as percentage of maximal peptide SFU (patient Y, max peptide 16 SFU): + (>70% = +) | IFN-γ ELISpot response [15]: 39 SFU | Significant response as percentage of maximal peptide SFU [16]: ′′′ (41-70% = ′′′) | Significant response as percentage of maximal peptide SFU [17]: ′′′ (41-70% = ′′′) | IFN-γ ELISpot response [18]: 22 SFU | Significant response as percentage of maximal peptide SFU [19]: ′′′ (41-70% = ′′′) | IFN-γ ELISpot response [20]: 6 SFU | IFN-γ ELISpot response [21]: 11 SFU | Significant response as percentage of maximal peptide SFU [26]: + (>70% = +) | IFN-γ ELISpot response [22]: 71 SFU | IFN-γ ELISpot response [23]: 6 SFU | IFN-γ ELISpot response [24]: 13 SFU | Significant response as percentage of maximal peptide SFU [25]: ′ (11-20% = ′)
